pKi: −log10 of the molar value.
Target: T1, human leukocyte elastase (Homo sapiens, UniProt P08246)
T1 sequence (P08246 30-267): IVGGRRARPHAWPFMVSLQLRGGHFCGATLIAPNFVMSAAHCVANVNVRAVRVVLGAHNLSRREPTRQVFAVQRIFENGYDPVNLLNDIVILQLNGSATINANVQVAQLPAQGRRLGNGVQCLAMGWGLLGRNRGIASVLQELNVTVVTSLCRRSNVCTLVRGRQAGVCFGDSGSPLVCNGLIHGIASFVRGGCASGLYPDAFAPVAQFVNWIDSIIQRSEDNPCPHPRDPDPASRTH
Assay: human leukocyte elastase (HLE) inhibitory activity, substrate MeOSuc-Ala-Ala-Pro-Val-pNA
Assay type: biochemical
Details: pH 7.8, 25° C., steady-state velocities
Method: The test compound (inhibitor) is dissolved in DMSO in a vial to produce an inhibitor stock solution which has a concentration in the range of 200-1000 μM. The inhibitor stock solution is diluted (1:4, 1:16 and 1:64) into assay vials (vials 1, 2 and 3 respectively) containing 2.4 mL of buffer solution (50 mM N-[2-hydroxyethyl] piperazine-N'-[2-ethanesulfonic acid]/NaOH, 500 mM NaCl, pH 7.8 at 25° C.) and DMSO is added so that the total volume in each vial is 3.2 mL. 70 μL, 50 μL, 35 μL and 25 μL of inhibitor from assay vial 1 is placed into the first four wells of a 96-well microtiter plate and each well is made up to 90 μL total volume with the addition of a 25% DMSO/buffer solution. The inhibitor from assay vials 2 and 3 is processed in a similar manner and placed in wells 5-12 respectively to afford a total of 12 different inhibitor concentrations. Four wells (wells 13-16) containing 90 μL of the 25% DMSO/buffer solution but no inhibitor are also run simultaneously with the inhibited wells as a control. 150 μL of substrate solution (prepared by the addition of 500 μL of the human leukocyte elastase (HLE) substrate MeOSuc-Ala-Ala-Pro-Val-pNA (18.7 mM in DMSO) to 19.5 mL of buffer solution) is then added simultaneously into each of the 16 wells and the solution in each well was thoroughly mixed.
The 96-well microtiter plate is placed into a Microplate Reader #89815A spectrophotometer and 110 μL of the enzyme solution (prepared as follows: a mixture of 20 mL of buffer solution and 20 mg of bovine serum albumen is gently vortexed in a scintillation vial and 5 μL HLE stock solution (1 mg/mL dissolved in deionized water) is added) is added simultaneously to each of the 16 wells. Each of the solutions in the wells is throughly mixed and then the time-dependent absorbance data is collected at an absorbance of 410 nm until the assay is complete. It should be noted that although this assay method can be done manually, it is preferred to perform the assay robotically using a Hewlett Packard MicroAssay System Robot. the absorbance versus time data thus obtained affords curves the final slope of which is equal to the final steady-statevelocities (VF). Using the program ENZFITTER (Elsevier software), the progress curves for the four control assays ([I]=0 are fit by linear regression to yield the enzyme reaction velocity values in the absences of inhibitor (Vo) which are averaged to produce a single fixed value. The inhibition constant Ki (nM) is then obtained from a plot of [formula] which affords a linear plot wherein: [formula] and [S] is the concentration of the substrate and Km is the Michaelis constant.
Table I summarizes the results obtained from the testing of compounds of the invention for human leukocyte elastase inhibitory activity.

Compound	pKi
COc1cc(C(C)C)c2c(c1)S(=O)(=O)N(COc1cc(-c3ccccc3)nn1C)C2=O [2 (b), 4-isopropyl-6-methoxy-2-(1-methyl-3-phenylpyrazol-5-yl-oxymethyl)-1,2-benzisothiazol-3(2H)-one 1,1-dioxide]	9.33
COc1cc(C(C)C)c2c(c1)S(=O)(=O)N(COc1cc(-c3ccccc3)nn1-c1ccccc1)C2=O [5 (b), 4-isopropyl-6-methoxy-2-(1,3-diphenylpyrazol-5-yl-oxymethyl)-1,2-benzisothiazol-3(2H)-one 1,1-dioxide]	9.04
COc1cc(C(C)C)c2c(c1)S(=O)(=O)N(COc1ccnn1-c1ccccc1)C2=O [6 (c), 4-isopropyl-6-methoxy-2-(1-phenylpyrazol-5-yl-oxymethyl)-1,2-benzisothiazol-3(2H)-one 1,1-dioxide]	9.84
COc1cc(C(C)C)c2c(c1)S(=O)(=O)N(COc1cc(-c3ccncc3)nn1-c1ccc(Cl)cc1)C2=O [14 (c), 4-isopropyl-6-methoxy-2-[1-(4-chlorophenyl)-3-(4-pyridyl)pyrazol-5-yl-oxymethyl]-1,2-benzisothiazol-3(2H)-one 1,1-dioxide]	9.72
COc1ccc(-n2nc(C(F)(F)F)cc2OCN2C(=O)c3c(C(C)C)cc(OC)cc3S2(=O)=O)cc1 [15 (b), 4-isopropyl-6-methoxy-2-[1-(4-methoxyphenyl)-3-trifluoromethylpyrazol-5-yl-oxymethyl)-1,2-benzisothiazol-3(2H)-one 1,1-dioxide]	9.89
COc1cc(C(C)C)c2c(c1)S(=O)(=O)N(COc1c(Cl)c(C(F)(F)F)nn1-c1ccccc1)C2=O [16 (b), 4-isopropyl-6-methoxy-2-(1-phenyl-3-trifluoromethyl-4-chloropyrazol-5-yl-oxymethyl)-1,2-benzisothiazol-3(2H)-one 1,1-dioxide]	8.80
COc1cc(C(C)C)c2c(c1)S(=O)(=O)N(COc1cc(-c3c(F)c(F)c(F)c(F)c3F)nn1-c1ccccc1)C2=O [19 (c)]	9.09
COc1cc(C(C)C)c2c(c1)S(=O)(=O)N(COc1cc(C(=O)NCCN3CCCC3)nn1-c1ccccc1)C2=O [23 (b), 4-isopropyl-6-methoxy-2-[1-phenyl-3-(C(O)NH(CH2)2-1-pyrrolidinyl)pyrazol-5-yl-oxymethyl]-1,2-benzisothiazol-3(2H)-one 1,1-dioxide]	10.19
COc1cc(C(C)C)c2c(c1)S(=O)(=O)N(COc1cc(C(F)(F)F)nn1-c1ccc(Cl)cn1)C2=O [28 (c), 4-isopropyl-6-methoxy-2-[1-(5-chloro-2-pyridyl)-3-(trifluoromethyl)pyrazol-5-yl-oxymethyl]-1,2-benzisothiazol-3(2H)-one 1,1-dioxide]	10.05
CCN(CC)CCN(C)C(=O)c1cc(OCN2C(=O)c3c(C(C)C)cc(OC)cc3S2(=O)=O)n(-c2ccccc2)n1 [31 (b)]	9.84
COc1cc(C(C)C)c2c(c1)S(=O)(=O)N(COc1cc(C(F)(F)F)nn1-c1ccc(Cl)nn1)C2=O [32 (c), 4-isopropyl-6-methoxy-2-[1-(3-chloropyridazin-6-yl)-3-trifluoromethylpyrazol-5-yl-oxymethyl]-1,2-benzisothiazol-3(2H)-one 1,1-dioxide]	10.26
COc1cc(C(C)C)c2c(c1)S(=O)(=O)N(COc1cc(C(=O)OC(C)(C)C)nn1-c1ccccc1)C2=O [33 (b), 4-isoorooyl-6-methoxy-2-[1-phenyl-3-(t-butoxycarbonyl)pyrazol-5-yl-oxymethyl]-1,2-benzisothiazol-23 (2H)-one 1,1-dioxide]	10.00
COc1cc(C(C)C)c2c(c1)S(=O)(=O)N(COc1cc(C(F)(F)F)nn1-c1ncc(Cl)cc1C(F)(F)F)C2=O [34 (b), 4-isopropyyl-6-methoxy-2-[1-(5-chloro-3-trifluoromethyl-2-pyridyl)-3-trifluoromethylpyrazol-5-yl-oxymethyl]-1,2-benzisothiazol-3(2H)-one 1,1-dioxide]	10.57
COc1cc(C(C)C)c2c(c1)S(=O)(=O)N(COc1cc(C(F)(F)F)nn1-c1cccc(C(F)(F)F)n1)C2=O [36 (b), 4-isopropyl-6-methoxy-2-[1-(6-trifluoromethyl-2-pyridyl)-3-trifluoromethylpyrazol-5-yl-oxymethyl]-1,2-benzisothiazol-3(2H)-one 1,1-dioxide]	10.54

Continued, values first:

pKi	Compound
9.36	COc1cc(C(C)C)c2c(c1)S(=O)(=O)N(COc1cc(C)nn1-c1ccccc1)C2=O [4 (b), 4-isopropyl-6-methoxy-2-(1-phenyl-3-methylpyrazol-5-yl-oxymethyl)-1,2-benzisothiazol-3(2H)-one 1,1-dioxide]
9.96	COc1cc(C(C)C)c2c(c1)S(=O)(=O)N(COc1cc(C(F)(F)F)nn1-c1ccc(Cl)cc1)C2=O [8 (b), 4-isopropyl-6-methoxy-2-[1-(4-chlorophenyl)-3-trifluoromethylpyrazol-5-yl-oxymethyl]-1,2-benzisothiazol-3(2H)-one 1,1-dioxide]
10.62	COc1cc(C(C)C)c2c(c1)S(=O)(=O)N(COc1cc(C(F)(F)F)nn1-c1ccccn1)C2=O [10 (b), 4-isopropyl-6-methoxy-2-[1-(2-pyridyl)-3-trifluoromethylpyrazol-5-yl-oxymethyl]-1,2-benzisothiazol-3(2H)-one 1,1-dioxide]
10.05	COc1cc(C(C)C)c2c(c1)S(=O)(=O)N(COc1cc(C(F)(F)F)nn1-c1ccc([N+](=O)[O-])cc1)C2=O [11 (c), 4-isopropyl-6-methoxy-2-[1-(4-nitrophenyl)-3-trifluoromethylpyrazol-5-yl-oxymethyl)-1,2-benzisothiazol-3(2H)-one 1,1-dioxide]
10.44	CC(C)c1cc(OCCCC(=O)O)cc2c1C(=O)N(COc1cc(C(F)(F)F)nn1-c1ccccc1)S2(=O)=O [17 (b), 4-isopropyl-6-[3-(carboxy)propoxy]-2-(1-phenyl-3-trifluoromethylpyrazol-5-yl-oxymethyl)-1,2-benzisothiazol-3(2H)-one 1,1-dioxide]
9.66	CC(C)c1cc(OCC(C)(C)C(=O)O)cc2c1C(=O)N(COc1cc(C(F)(F)F)nn1-c1ccccc1)S2(=O)=O [18 (b), 4-isopropyl-6-[2-(carboxy-2-methyl)propoxy]-2-(1-phenyl-3-trifluoromethylpyrazol-5-yl-oxymethyl)-1,2-benzisothiazol-3(2H)-one 1,1-dioxide]
10.43	COc1cc(C(C)C)c2c(c1)S(=O)(=O)N(COc1cc(C(F)(F)F)nn1-c1cccnc1)C2=O [20 (c), 4-isopropyl-6-methoxy-2-[1-(3-lpyridyl)-3-(trifluoromethyl)pyrazol-5-yl-oxymethyl]-1,2-benzisothiazol-3(2H)-one 1,1-dioxide]
9.74	COc1cc(C(C)C)c2c(c1)S(=O)(=O)N(COc1cc(C(F)(F)F)nn1-c1ccncc1)C2=O [22 (b), 4-isopropyl-6-methoxy-2-[1-(4-pyridyl)-3-trifluoromethylpyrazol-5-yl-oxymethyl]-1,2-benzisothiazol-3(2H)-one 1,1-dioxide]
10.59	COc1cc(C(C)C)c2c(c1)S(=O)(=O)N(COc1cc(Cl)nn1-c1ccccc1)C2=O [24 (c), 4-isopropyl-6-methoxy-2-(1-phenyl-3-chloropyrazol-5-yl-oxymethyl)-1,2-benzisothiazol-3(2H)-one 1,1-dioxide]
9.82	COc1cc(C(C)C)c2c(c1)S(=O)(=O)N(COc1cc(C(F)(F)F)nn1-c1ccc3ccccc3n1)C2=O [27 (b), 4-isopropyl-6-methoxy-2-[1-(2-quinolinyl)-3-(trifluoromethyl)pyrazol-5-yl-oxymethyl]-1,2-benzisothiazol-3(2H)-one 1,1-dioxide]
10.09	CCN(CC)Cc1ccc(COc2cc(C(C)C)c3c(c2)S(=O)(=O)N(COc2cc(C(F)(F)F)nn2-c2ccccc2)C3=O)o1 [29 (b)]
10.15	COc1cc(C(C)C)c2c(c1)S(=O)(=O)N(COc1cc(C(F)(F)F)nn1-c1ccccc1Cl)C2=O [30 (b), 4-isopropyl-6-methoxy-2-[1-(2-chlorophenyl)-3-trifluoromethylpyrazol-5-yl-oxymethyl]-1,2-benzisothiazol-3(2H)-one 1,1-dioxide]

From US5750550A, “2-(pyrazol-5-yl-oxymethyl)-1,2-benzisothiazol-3 (2H)-One 1, 1-dioxides and compositions and method of use thereof” (Sanofi, priority 1995, dated 1998)
